pEC50: −log10 of the molar value. Like-named read-outs stand apart in the source and are kept apart here.

The record followed here is US20210395262A1, “INHIBITORS OF HUMAN IMMUNODEFICIENCY VIRUS REPLICATION” (ViiV HEALTHCARE UK (NO.5) LIMITED, priority 2018, published 2021).

Series [1] relates to recombinant NL4-3 virus. The experiment in a line: HIV cell culture assay (antiviral activity, luciferase readout in MT-2 cells). It counts as cell-based. The settings on record: Human immunodeficiency virus 1, NL43, MT2. On the procedure:
HIV cell culture assay—MT-2 cells, 293T cells and the proviral DNA clone of NL4-3 virus were obtained from the […] AIDS Research and Reference Reagent Program. MT-2 cells were propagated in RPMI 1640 media supplemented with 10% heat inactivated fetal bovine serum (FBS), […] penicillin G and up to 100 units/mL streptomycin. The 293T cells were propagated in DMEM media supplemented with 10% heat inactivated FBS, […] penicillin G and […] streptomycin. A recombinant NL4-3 proviral clone, in which a section of the nef gene was replaced with the Renilla luciferase gene, was used to make the reference virus used in these studies. The recombinant virus was prepared through transfection of the recombinant NL4-3 proviral clone into 293T cells using Transit-293 Transfection Reagent from Mirus Bio LLC (Madison, Wis.). Supernatent was harvested after 2-3 days and the amount of virus present was titered in MT-2 cells using luciferase enzyme activity as a marker by measuring luciferase enzyme activity. Luciferase was quantitated using the EnduRen Live Cell Substrate from Promega (Madison, Wis.). Antiviral activities of compounds toward the recombinant virus were quantified by measuring luciferase activity in MT-2 cells infected for 4-5 days with the recombinant virus in the presence of serial dilutions of the compound.
The 50% effective concentration (EC50) was calculated by using the exponential form of the median effect equation where (Fa)=1/[1+(ED50/drug conc.)m] (Johnson V A, Byington R T. Infectivity Assay. In Techniques in HIV Research. ed. Aldovini A, Walker B D. 71-76. New York: Stockton Press. 1990). The 50% inhibitory concentration (EC50) was calculated by using the exponential form of the median effect equation where percent inhibition=1/[1+(EC50/drug concentration)m], where m is a parameter that reflects the slope of the concentration-response curve.

The nature of series [2]: Compound cytotoxicity, XTT-based colorimetric assay. The settings on record: human. The class given is cell-based. On the procedure:
Compound cytotoxicity and the corresponding CC50 values were determined using the same protocol as described in the antiviral assay except that uninfected cells were used. Cytotoxicity was assessed on day 4 in uninfected MT2 cells by using a XTT (2,3-bis[2-Methoxy-4-nitro-5-sulfophenyl]-2H-tetrazolium-5-carboxyanilide inner salt)-based colorimetric assay (Sigma-Aldrich, St Louis, Mo.).
(Tetrazolium assays rely on reduction of a dye to a coloured formazan, in cell work by metabolically active cells.)

The mark [3] stands for this setting: uninfected MT2 cells, day 4, XTT, read-out: CC50.

In general, pEC50 refers to the negative decadic logarithm of the EC50, by convention in mol/L. The term CC50 denotes the concentration at which the toxic effect on the cells reaches its halfway point. Consider `Cn1nc(NS(C)(=O)=O)c2c(Cl)ccc(-n3c([C@H](Cc4cc(F)cc(F)c4)NC(=O)Cn4nc(C(F)F)c5c4C(F)(F)[C@@H]4C[C@H]54)nc4cc(N5CCCOCC5)ccc4c3=O)c21` (atropisomer, axis not shown; (P)) [Example 17, N—((S)-1-((3P)-3-(4-chloro-1-methyl-3-(methylsulfonamido)-1H-indazol-7-yl)-7-(1,4-oxazepan-4-yl)-4-oxo-3,4-dihydroquinazolin-2-yl)-2-(3,5-difluorophenyl)ethyl)-2-((3bS,4aR)-3-(difluoromethyl)-5,5-difluoro-3b,4,4a,5-tetrahydro-1H-cyclopropa[3,4]cyclopenta[1,2-c]pyrazol-1-yl)acetamide], for which the pEC50 in series [1] was 10.16. The CC50 at 4 days in series [2] (setting [3]) is more than 1000 nM.

Turning to `Cn1nc(NS(C)(=O)=O)c2c(Cl)ccc(-n3c([C@H](Cc4cc(F)cc(F)c4)NC(=O)Cn4nc(C(F)F)c5c4C(F)(F)[C@@H]4C[C@H]54)nc4cc(N5CCCC5)ccc4c3=O)c21` (atropisomer, axis not shown; (P)) [Example 19, N—((S)-1-((3P)-3-(4-chloro-1-methyl-3-(methylsulfonamido)-1H-indazol-7-yl)-4-oxo-7-(pyrrolidin-1-yl)-3,4-dihydroquinazolin-2-yl)-2-(3,5-difluorophenyl)ethyl)-2-((3bS,4aR)-3-(difluoromethyl)-5,5-difluoro-3b,4,4a,5-tetrahydro-1H-cyclopropa[3,4]cyclopenta[1,2-c]pyrazol-1-yl)acetamide], the pEC50 in series [1] was 9.65. In series [2] (setting [3]), the CC50 at 4 days was more than 1000 nM.

For the compound `C[C@@H]1CN(c2ccc3c(=O)n(-c4ccc(Cl)c5c(NS(C)(=O)=O)nn(CC(F)F)c45)c([C@H](Cc4cc(F)cc(F)c4)NC(=O)Cn4nc(C5CC5)cc4C(F)F)nc3c2)C[C@H](C)O1` (atropisomer, axis not shown; (P)) [Example 47, N—((S)-1-((3P)-3-(4-chloro-1-(2,2-difluoroethyl)-3-(methylsulfonamido)-1H-indazol-7-yl)-7-((2S,6R)-2,6-dimethylmorpholino)-4-oxo-3,4-dihydroquinazolin-2-yl)-2-(3,5-difluorophenyl)ethyl)-2-(3-cyclopropyl-5-(difluoromethyl)-1H-pyrazol-1-yl)acetamide], the negative-log EC50 (pEC50) in series [1] was 9.02. The CC50 at 4 days in series [2] (setting [3]) was more than 500 nM.

On to `C[C@@H]1CN(c2ccc3c(=O)n(-c4ccc(Cl)c5c(NS(C)(=O)=O)nn(CC(F)F)c45)c([C@H](Cc4cc(F)cc(F)c4)NC(=O)Cn4nc(C5CC5)c5ccccc54)nc3c2)C[C@H](C)O1` (atropisomer, axis not shown; (P)) [Example 44, N—((S)-1-((3P)-3-(4-chloro-1-(2,2-difluoroethyl)-3-(methylsulfonamido)-1H-indazol-7-yl)-7-((2S,6R)-2,6-dimethylmorpholino)-4-oxo-3,4-dihydroquinazolin-2-yl)-2-(3,5-difluorophenyl)ethyl)-2-(3-cyclopropyl-1H-indazol-1-yl)acetamide], for which the pEC50 in series [1] is 9.23. For the same compound, the CC50 at 4 days in series [2] (setting [3]) is more than 500 nM.

As for `Cn1nc(NS(C)(=O)=O)c2c(Cl)ccc(-n3c([C@H](Cc4cc(F)cc(F)c4)NC(=O)Cn4nc(C(F)F)c5c4C(F)(F)[C@@H]4C[C@H]54)nc4cc(N5CCOC(C)(C)C5)ccc4c3=O)c21` (atropisomer, axis not shown; (P)) [Example 4, N—((S)-1-((3P)-3-(4-chloro-1-methyl-3-(methylsulfonamido)-1H-indazol-7-yl)-7-(2,2-dimethylmorpholino)-4-oxo-3,4-dihydroquinazolin-2-yl)-2-(3,5-difluorophenyl)ethyl)-2-((3bS,4aR)-3-(difluoromethyl)-5,5-difluoro-3b,4,4a,5-tetrahydro-1H-cyclopropa[3,4]cyclopenta[1,2-c]pyrazol-1-yl)acetamide], the pEC50 in series [1] was 10.20. Also, in series [2] (setting [3]), the CC50 at 4 days is more than 500 nM.

Consider `Cn1nc(NS(C)(=O)=O)c2c(Cl)ccc(-n3c([C@H](Cc4cc(F)cc(F)c4)NC(=O)Cn4nc(C(F)F)c5c4C(F)(F)[C@@H]4C[C@H]54)nc4cc(NCc5ccccc5)ccc4c3=O)c21` (atropisomer, axis not shown; (P)) [Example 20, N—((S)-1-(7-(benzylamino)-(3P)-3-(4-chloro-1-methyl-3-(methylsulfonamido)-1H-indazol-7-yl)-4-oxo-3,4-dihydroquinazolin-2-yl)-2-(3,5-difluorophenyl)ethyl)-2-((3bS,4aR)-3-(difluoromethyl)-5,5-difluoro-3b,4,4a,5-tetrahydro-1H-cyclopropa[3,4]cyclopenta[1,2-c]pyrazol-1-yl)acetamide], for which the pEC50 in series [1] was 9.42. In series [2] (setting [3]), the CC50 at 4 days was more than 1000 nM.

Turning to `Cn1nc(NS(C)(=O)=O)c2c(Cl)ccc(-n3c([C@H](Cc4cc(F)cc(F)c4)NC(=O)Cn4nc(C(F)F)c5c4C(F)(F)[C@@H]4C[C@H]54)nc4cc(N5CC6CCC(C5)O6)ccc4c3=O)c21` [Example 27, N—((S)-1-(7-((1R,5S)-8-oxa-3-azabicyclo[3.2.1]octan-3-yl)-(3P)-3-(4-chloro-1-methyl-3-(methylsulfonamido)-1H-indazol-7-yl)-4-oxo-3,4-dihydroquinazolin-2-yl)-2-(3,5-difluorophenyl)ethyl)-2-((3bS,4aR)-3-(difluoromethyl)-5,5-difluoro-3b,4,4a,5-tetrahydro-1H-cyclopropa[3,4]cyclopenta[1,2-c]pyrazol-1-yl)acetamide], the pEC50 in series [1] was 10.29. In addition, the CC50 at 4 days in series [2] (setting [3]) was more than 500 nM.

Regarding `C[C@@H]1CN(c2ccc3c(=O)n(-c4ccc(Cl)c5c(NS(C)(=O)=O)nn(CC(F)F)c45)c([C@H](Cc4cc(F)cc(F)c4)NC(=O)Cn4nc(C(F)F)cc4C4CC4)nc3c2)C[C@H](C)O1` [Example 46, N—((S)-1-((3P)-3-(4-chloro-1-(2,2-difluoroethyl)-3-(methylsulfonamido)-1H-indazol-7-yl)-7-((2S,6R)-2,6-dimethylmorpholino)-4-oxo-3,4-dihydroquinazolin-2-yl)-2-(3,5-difluorophenyl)ethyl)-2-(5-cyclopropyl-3-(difluoromethyl)-1H-pyrazol-1-yl)acetamide], the pEC50 in series [1] is 9.24. The CC50 at 4 days in series [2] (setting [3]) is more than 500 nM.

As to `C[C@@H]1CN(c2ccc3c(=O)n(-c4ccc(Cl)c5c(NS(C)(=O)=O)nn(CC(F)(F)F)c45)c([C@H](Cc4cc(F)cc(F)c4)NC(=O)Cn4nc(C(F)F)c5c4C(F)(F)[C@@H]4C[C@H]54)nc3c2)C[C@H](C)O1` (atropisomer, axis not shown; (P)) [Example 58, N—((S)-1-((3P)-3-(4-chloro-3-(methylsulfonamido)-1-(2,2,2-trifluoroethyl)-1H-indazol-7-yl)-7-((2S,6R)-2,6-dimethylmorpholino)-4-oxo-3,4-dihydroquinazolin-2-yl)-2-(3,5-difluorophenyl)ethyl)-2-((3bS,4aR)-3-(difluoromethyl)-5,5-difluoro-3b,4,4a,5-tetrahydro-1H-cyclopropa[3,4]cyclopenta[1,2-c]pyrazol-1-yl)acetamide], in series [1], the negative logarithm of the EC50 (pEC50) was 10.28. Moreover, the CC50 at 4 days in series [2] (setting [3]) was more than 500 nM.

Take `C[C@@H]1CN(c2ccc3c(=O)n(-c4ccc(Cl)c5c(NS(C)(=O)=O)nn(CC(F)F)c45)c([C@H](Cc4cc(F)cc(F)c4)NC(=O)Cn4nc(C(F)(F)F)c5ccccc54)nc3c2)C[C@H](C)O1` (atropisomer, axis not shown; (P)) [Example 43, N—((S)-1-((3P)-3-(4-chloro-1-(2,2-difluoroethyl)-3-(methylsulfonamido)-1H-indazol-7-yl)-7-((2S,6R)-2,6-dimethylmorpholino)-4-oxo-3,4-dihydroquinazolin-2-yl)-2-(3,5-difluorophenyl)ethyl)-2-(3-(trifluoromethyl)-1H-indazol-1-yl)acetamide]: the pEC50 in series [1] was 8.92. Moreover, the CC50 at 4 days in series [2] (setting [3]) was more than 500 nM.

For `Cn1nc(NS(C)(=O)=O)c2c(Cl)ccc(-n3c([C@H](Cc4cc(F)cc(F)c4)NC(=O)Cn4nc(C(F)F)c5c4C(F)(F)[C@@H]4C[C@H]54)nc4cc(N5C6CCC5COC6)ccc4c3=O)c21` [Example 64, N—((S)-1-(7-((1R,5S)-3-oxa-8-azabicyclo[3.2.1]octan-8-yl)-(3P)-3-(4-chloro-1-methyl-3-(methylsulfonamido)-1H-indazol-7-yl)-4-oxo-3,4-dihydroquinazolin-2-yl)-2-(3,5-difluorophenyl)ethyl)-2-((3bS,4aR)-3-(difluoromethyl)-5,5-difluoro-3b,4,4a,5-tetrahydro-1H-cyclopropa[3,4]cyclopenta[1,2-c]pyrazol-1-yl)acetamide], the pEC50 in series [1] was 10.43. Further, the CC50 at 4 days in series [2] is more than 500 nM.
